Experimental data from US6541240B1, “Bacterial cleavage of only organic C-N bonds of carbonaceous materials to reduce nitrogen content” (Petroleo Brasileiro S.A.-Petrobras, priority 1999, dated 2003).

Legend:
[1] = test system: Pseudomonas ayucida No PTA-806; test: Nitrogen Bioavailability Assay, substrate range and specificity tests; type: cell-based; conditions: for growth on test compound as nitrogen source: substrate range and specificity tests
Text: The ability of bacteria to utilize organic nitrogen compounds for growth can be measured by the Nitrogen Bioavailability Assay (NBA). This assay is based on the fact that all life requires some nitrogen for growth and, therefore, a situation can be created whereby quantifying bacterial growth provides a measure of the utilization of any organic or inorganic compound as a source of nitrogen.
Thus, the Nitrogen Availability Assay utilizes defined mineral salts medium in growth tests in which organonitrogen model compounds such as quinoline, pyridine, carbazole, and porphyrin serve as sources of carbon and/or nitrogen. Growth tests are performed using six conditions:
1. Test compound as sole source of carbon and nitrogen;
2. […]
3. Test compound as sole source of nitrogen (alternative carbon source, glucose/glycerol/succinate, is available);
4. Test compound present as well as alternative sources of carbon and nitrogen;
5. Only alternative nitrogen (ammonia) and carbon (glucose/glycerol/succinate) sources are available. The test compound is not present.
6. No nitrogen compounds of any kind are present, but alternative carbon (glucose/glycerol/succinate) sources are available.
These six growth conditions constitute a bioassay for the ability of a culture to metabolize organonitrogen compounds. […]
The NBA test may be performed with any organonitrogen test compound which is ordinarily used at a concentration of from 3 mM to 20 mM.
In order to determine the range of organonitrogen compounds that could serve as sole sources of nitrogen for growth for the various pure cultures of the invention various organonitrogen compounds and control compounds are tested according to the Nitrogen Bioavailability Assay procedure. All compounds are highly pure, analytical grade compounds.
The various cultures are inoculated into test tubes or shake flasks containing media components appropriate for the six test conditions.
The cultures are then incubated aerobically for 2 to 4 days, at room temperature or at 30° C.
The growth of the cultures is monitored by measuring the turbidity/optical density of the cultures in the various test conditions, or by determining colony forming units.
Test condition no 6 (nitrogen-free sample) is a negative control.
Test conditions no 4 and 5 are positive controls since the samples are amended with both a carbon and nitrogen source and therefore should produce healthy microbial growth unless the test compound is toxic to the culture being tested. In this event only condition no 5 should result in healthy growth.
Substrate range and specificity tests were also carried out for the microorganism of the invention.

Aneurinibacillus sp. = test: Nitrogen Availability Assay, growth and substrate range tests of thermophilic culture; conditions: for minimum nitrogen concentration needed for growth: sole nitrogen source; for growth on test compound (substrate range): 3 mM test compound, 2 to 3 weeks incubation
Description: The growth curve for this microorganism on pyridine as sole nitrogen source at 55° C. was determined by adding pyridine at the concentration of 3 mM to the Modified A medium in a 300 ml shake flask with a side arm klett tube to take klett/turbidity readings. Inoculums from log phase cultures were used in studying the growth kinetics of the culture. […] All experiments were in triplicate.
The concentration of nitrogen required by Aneurinibacillus sp. for growth was investigated using ammonium chloride and pyridine as sole nitrogen sources in modified medium A, at pH 7 and 55° C.
Substrate range and specificity tests were carried out for this culture. Experiments were performed during 2 to 3 weeks of incubations in sterile tubes with 3 mM concentration of the test compounds and an incubation volume of 5 ml.

Pseudomonas stutzeri = test: Utilization of carbazole as nitrogen or carbon source; type: cell-based
Description: This culture is prepared by the methods described hereinbefore. […] Experimental results lead to the conclusion that C—N bonds in carbazole are selectively cleaved by the Pseudomonas stutzer culture isolated here although the specific metabolites produced have not yet been determined.

Yokenella sp. = test: as above; type: cell-based
Description: The Yokenella sp. culture is prepared according to the principles described hereinbefore. […] Experimental results lead to the conclusion that C—N bonds in carbazole are selectively cleaved by the Yokenella sp. culture isolated here although the specific metabolites produced have not yet been determined.

[2] = test system: Derivatives of Pseudomonas ayucida No PTA-806; test: Utilization of organonitrogen compounds by derivative culture; type: cell-based
Text: Similarly, derivatives of Pseudomonas ayucida No PTA-806 that are resistant to antiobiotics, either by the isolation of chromosomal mutations or by the introduction of suitable plasmids, retain the ability to selectively cleave C—N bonds in quinoline and other organonitrogen compounds.

[3] = test system: Pseudomonas ayucida No PTA-806; test: Petroleum (shale oil) biodenitrogenation test; type: cell-based; conditions: overnight (16 hour) incubation
Description: One liter of culture OD600=1.67 is produced, which is harvested and the cell pellet is resuspended in 100 mls of ModA medium. The culture is divided into two 50 ml portions and 3 ml of shale oil (1.7 weight % nitrogen) is added to each. Then, the cultures are incubated under agitation at room temperature overnight (16 hours), the oil is separated and analyzed. The amount of quinoline present in oil samples is determined by GC, the area under the peak being corresponding to a retention time for quinoline.
Then duplicate washed concentrated cell suspensions were incubated with shale oil samples for 16 hours at 30° C. The control sample consisted of shale oil added to sterile ModA medium which was incubated for 16 hours at 30° C. After incubation the petroleum samples were recovered and analyzed.

[4] = test system: Pseudomonas nitroreducens
[5] = modified medium A, pH 7, 55° C.
[6] = pyridine 3 mM as sole nitrogen source, 55° C., Modified A medium

## CCCCN1CCCC1 [1-butylpyrrolidine]
[1]
  growth in the presence of test compound when quinoline simultaneously present as alternate nitrogen source: grew in the presence of all of the test compounds except

## Oc1cc(O)c2ccccc2n1 [2,4-quinolinediol]
[1]
  growth on test compound as nitrogen source: grow

## C=C1N(C)c2ccccc2C1(C)C [2-methylene-1,3,3-trimethyl indoline]
[1]
  growth in the presence of test compound when quinoline simultaneously present as alternate nitrogen source: grew in the presence of all of the test compounds except

## O=C1CCc2ccccc2N1 [3,4-dihydro-(1H)-quinolinone]
[1]
  growth on test compound as nitrogen source: grow

## O=c1ccc2cccc(O)c2o1 [8-hydroxycoumarin]
[1]
  utilization as carbon source for growth: lack of utilization

## Oc1cccc2cccnc12 [8-hydroxyquinoline]
[1]
  growth on test compound as nitrogen source: grow

## Cl.N [ammonium chloride]
Aneurinibacillus sp.; [5]
  minimum nitrogen concentration needed for growth: 0.5 mM

## c1ccc2c(c1)[nH]c1ccccc12 [carbazole]
Pseudomonas stutzeri
  utilization as sole nitrogen source: able to utilize
  utilization as source of carbon: dose not utilize
Yokenella sp.
  utilization as sole nitrogen source: able to utilize
  utilization as source of carbon: dose not utilize

## Nc1nc2nc[nH]c2c(=O)[nH]1 [guanine]
[1]
  growth on test compound as nitrogen source: grow
Aneurinibacillus sp.
  growth on test compound (substrate range): showed growth

## c1ccc2cnccc2c1 [isoquinoline]
[2]
  utilization / metabolism by derivative culture: increased substrate range for the metabolism

## NCCCC[C@H](N)C(=O)O [lysine]
[1]
  growth on test compound as nitrogen source: grow
Aneurinibacillus sp.
  growth on test compound (substrate range): showed growth

## O=C(O)c1cccnc1 [nicotinic acid]
[1]
  growth on test compound as nitrogen source: grow
Aneurinibacillus sp.
  growth on test compound (substrate range): showed growth

## c1ccncc1 [pyridine]
Aneurinibacillus sp.
  utilization as carbon source: no utilization
  growth on test compound (substrate range): showed growth
Aneurinibacillus sp.; 55° C.
  utilization as sole nitrogen source: able to utilize
Aneurinibacillus sp.; [5]
  concentration inhibitory to the culture: higher than 10 mM
  minimum nitrogen concentration needed for growth: 0.5 mM
Aneurinibacillus sp.; [6]
  exponential growth rate: 0.13 h
  generation time: 7.55 h

## c1ccc2ncncc2c1 [quinazoline]
[2]
  utilization / metabolism by derivative culture: increased substrate range for the metabolism

## c1ccc2ncccc2c1 [quinoline]
[1]
  utilization as carbon source for growth: lack of utilization
  growth on test compound as nitrogen source: grow
[1]; defined salts medium, 30° C., quinoline as sole nitrogen source
  cell doubling time: 4.25 h
[3]
  quinoline removed from shale oil: about 68%
[4]
  growth with compound as sole source of nitrogen: growth with quinoline as sole source of nitrogen is indicated
[4]; quinoline 3.4 mM as sole source of nitrogen
  reduction of total nitrogen content of the medium: up to 85%

## c1ccc2nccnc2c1 [quinoxaline]
[1]
  growth on test compound as nitrogen source: grow
[2]
  utilization / metabolism by derivative culture: improved ability to utilize

## N[C@@H](Cc1c[nH]c2ccccc12)C(=O)O [tryptophan]
[1]
  growth on test compound as nitrogen source: grow
Aneurinibacillus sp.
  growth on test compound (substrate range): showed growth

## NC(N)=O [urea]
[1]
  growth on test compound as nitrogen source: grow
Aneurinibacillus sp.
  growth on test compound (substrate range): showed growth
